TGI and GI50 data for 14 compounds are collected here from PubChem BioAssay (NCI).

Each structure is given as a SMILES string.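 Results reflect a 48-hour exposure of cells in 96-well plates to compound at five concentrations. GI50 is the concentration that inhibits growth by half. TGI: total growth inhibition.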 A value given as a limit tells only on which side of the number the result lay.

Among the test systems are RPMI-8226 leukemia; KM12 colon; MALME-3M melanoma; A549 NSCLC; NCI-H23 lung; MDA-MB-231 breast; SW-620 colon; MDA-MB-435; OVCAR-8 ovarian; U251 CNS.
Test in all cases: NCI-60 cell line screen, 48 h

As for `CN1C(=O)C(O)CC1c1cccc(C(F)(F)F)c1` (stereo not given), the TGI in the experiment on RPMI-8226 leukemia, with KM12 colon, in the experiment with MALME-3M melanoma, in the experiment with A549 NSCLC, in the experiment with NCI-H23 lung and in the experiment on MDA-MB-231 breast was more than 100 µM in each case. Moreover, the TGI with SW-620 colon, in the experiment with MDA-MB-435, in the experiment on OVCAR-8 ovarian and in the experiment on U251 CNS was more than 100 µM each time.
Take `O=C1CC(n2cccc2)c2c(Br)sc(Br)c21` (stereo not given): the TGI turned out to be 27.4 µM with RPMI-8226 leukemia; 22.8 µM with KM12 colon; 38 µM in the experiment on MALME-3M melanoma; 61.8 µM with A549 NSCLC; 27.9 µM in the experiment with NCI-H23 lung; 30.9 µM with MDA-MB-231 breast. Further, the TGI is 41.3 µM in the experiment with SW-620 colon, 29.3 µM with MDA-MB-435, 37.8 µM with OVCAR-8 ovarian and 28.4 µM with U251 CNS.
In the case of `Cc1nc(-c2cc3cc(Cl)ccc3oc2=O)cc2c1c(=O)oc1ccc(Cl)cc12`, the TGI in the experiment with RPMI-8226 leukemia, with KM12 colon, in the experiment with A549 NSCLC, in the experiment with NCI-H23 lung, with MDA-MB-231 breast and in the experiment with SW-620 colon was more than 100 µM in each case. Also, the TGI with MDA-MB-435, in the experiment on OVCAR-8 ovarian and with U251 CNS was more than 100 µM throughout.
On to `CCOC(=O)C1(C(F)(F)F)N=C(CC)OC(N2CCOCC2)=N1` (stereo not given), for which the TGI in the experiment on RPMI-8226 leukemia, with KM12 colon, in the experiment on A549 NSCLC, in the experiment on NCI-H23 lung, with MDA-MB-231 breast and with SW-620 colon was more than 100 µM each time. In addition, the TGI in the experiment with MDA-MB-435, in the experiment with OVCAR-8 ovarian and in the experiment on U251 CNS was more than 100 µM each time.
As to `CCCNc1ncnc2[nH]ncc12`, the TGI with RPMI-8226 leukemia, in the experiment on KM12 colon, in the experiment on MALME-3M melanoma, with A549 NSCLC, in the experiment with NCI-H23 lung and in the experiment on MDA-MB-231 breast was more than 100 µM each time. Also, the TGI in the experiment with SW-620 colon, in the experiment with MDA-MB-435, with OVCAR-8 ovarian and in the experiment with U251 CNS was more than 100 µM throughout.
As to `CCOC(=O)C1CCCCN1CCc1c[nH]c2ccccc12` (stereo not given), the TGI with RPMI-8226 leukemia, in the experiment on KM12 colon, in the experiment on MALME-3M melanoma, in the experiment with A549 NSCLC, in the experiment with NCI-H23 lung and with MDA-MB-231 breast was more than 100 µM in each case. The TGI with SW-620 colon, with MDA-MB-435, in the experiment on OVCAR-8 ovarian and in the experiment on U251 CNS was more than 100 µM in each case.
On to `Cc1ccc(/C(O)=C/c2nc3ccc([N+](=O)[O-])cc3nc2/C=C(\O)c2ccc(C)cc2)cc1`, for which the TGI in the experiment on RPMI-8226 leukemia, in the experiment with KM12 colon, in the experiment on MALME-3M melanoma, with A549 NSCLC, with NCI-H23 lung and in the experiment with MDA-MB-231 breast was more than 100 µM throughout. For the same compound, the TGI with SW-620 colon, with MDA-MB-435, in the experiment on OVCAR-8 ovarian and with U251 CNS was more than 100 µM throughout.
As for `CC(=O)Nc1cc(Nc2cc(=O)[nH]c(=O)[nH]2)ccc1C`, the TGI in the experiment on RPMI-8226 leukemia, with KM12 colon, in the experiment with MALME-3M melanoma, in the experiment on A549 NSCLC, in the experiment with MDA-MB-231 breast and in the experiment with SW-620 colon was more than 100 µM throughout. In addition, the TGI in the experiment with MDA-MB-435, with OVCAR-8 ovarian and in the experiment on U251 CNS was more than 100 µM in each case.
For `CC(=O)CC(=O)CCC(=O)O`, the TGI in the experiment with KM12 colon, in the experiment with MALME-3M melanoma, in the experiment on A549 NSCLC, with NCI-H23 lung, in the experiment on SW-620 colon and with OVCAR-8 ovarian was more than 100 µM throughout. Moreover, the TGI with U251 CNS is more than 100 µM.
Consider `COc1c(C)c(C/C=C(\C)CC/C=C(\C)CCC=C(C)C)c(OC)c(OC)c1OC`, for which the TGI with KM12 colon, in the experiment with A549 NSCLC, with NCI-H23 lung, in the experiment with MDA-MB-231 breast, in the experiment on SW-620 colon and in the experiment with MDA-MB-435 was more than 100 µM in each case. Moreover, the TGI with OVCAR-8 ovarian and in the experiment with U251 CNS was more than 100 µM in each case.
As for `COc1ccccc1CNCCCCCCCCCCCCN1C(=O)c2ccc3c4c(ccc(c24)C1=O)C(=O)N(CCCCCCCCCCCCNCc1ccccc1OC)C3=O`, the GI50 was more than 50 µM with MALME-3M melanoma; more than 5 µM with A549 NSCLC; more than 50 µM in the experiment with MDA-MB-231 breast; more than 50 µM in the experiment on SW-620 colon; 0.908 µM in the experiment with OVCAR-8 ovarian. For the same compound, the TGI with MALME-3M melanoma is more than 50 µM; in the experiment with A549 NSCLC it was more than 5 µM; in the experiment with MDA-MB-231 breast, more than 50 µM; in the experiment on SW-620 colon, more than 50 µM; in the experiment with OVCAR-8 ovarian, 1.94 µM.
Consider `C#CCC1(C(=O)OCC)C(=O)c2ccccc2N(C)C1=O` (stereo not given), for which the TGI with RPMI-8226 leukemia is more than 100 µM; in the experiment on MALME-3M melanoma, more than 100 µM; with NCI-H23 lung it was 36.9 µM; in the experiment on SW-620 colon, more than 100 µM; in the experiment on OVCAR-8 ovarian it was more than 100 µM; in the experiment on U251 CNS it was more than 100 µM.
On to `CC(C)(C)OC(=O)n1cc(C2CN(O)C(=O)C23CCC(=O)N3Cc2ccccc2)c2ccccc21` (stereo not given), for which the TGI was 93.5 µM in the experiment on RPMI-8226 leukemia; more than 100 µM in the experiment with KM12 colon; more than 100 µM in the experiment on MALME-3M melanoma; more than 100 µM with A549 NSCLC; more than 100 µM in the experiment with NCI-H23 lung; more than 100 µM in the experiment on MDA-MB-231 breast. Further, the TGI in the experiment with SW-620 colon, in the experiment with MDA-MB-435 and in the experiment with U251 CNS was more than 100 µM throughout.
For the compound `COc1ccc(CCN2CCc3c(C)c(C#N)c4nc5ccccc5n4c32)cc1OC`, the TGI was 99.8 µM in the experiment with MALME-3M melanoma; more than 100 µM with A549 NSCLC; more than 100 µM in the experiment on NCI-H23 lung; 86.1 µM in the experiment on MDA-MB-231 breast; 97.3 µM in the experiment on SW-620 colon; 45 µM in the experiment with MDA-MB-435. For the same compound, the TGI in the experiment on OVCAR-8 ovarian and in the experiment with U251 CNS was more than 100 µM each time.
